1 compound from patent US20150368617A1, “METHOD FOR FORMING ENDOTHELIAL CELLS” (Korea Advanced Institute of Science and Technology (KAIST), priority 2012, published 2015) can be followed below.

One experiment has as its system ICAM2+ ECs. Nature of the experiment: Quantitative RT-PCR of EC- and MC-related genes in purified ICAM2+ ECs. It is filed as cell-based, mouse. Particulars: VEGF-A plus Y27632 compared to VEGF-A. From the text:
Total RNA from purified ICAM-2+ ECs was extracted using Trizol RNA extraction kit (Invitrogen) according to the manufacturer's instructions. 1┌ g of the RNA was reverse transcribed into cDNA using GoScript™ cDNA synthesis system (Promega). Synthesized cDNA was applied for quantitative real-time PCR using FastStart SYBR green Master (Roche) and Bio-Rad S1000 Thermal cycler with the indicated primers (Table I). GAPDH was used as reference gene and the results were presented as relative expression to control using the ddCt method.

In another experiment the test system is Flk1+ MPCs. The experiment is described as follows: Differentiation and expansion of ECs from Flk1+ MPCs in feeder cell-free 2D Matrigel system, FACS of CD31+/CD144+ ECs. As to conditions: for differentiation and expansion of ECs compared to control: Y27632 10 μM; for increase of CD31+/CD144+ EC population compared to Control: day 6.5, E14tg2a. The format is cell-based, mouse. How it is done:
E14tg2a ESC cell line was a generous gift from Dr. Jun K. Yamashita (Kyoto University), and R1 ESC cell line was purchased from American Type Cell Culture. Mouse iPSC derived from FVB strain was a generous gift from Drs. Hyun-Jai Cho and Hyo-Soo Kim (Seoul National University Hospital). To obtain Flk1+ MPCs, ESCs and iPSCs were cultured on 0.1% gelatin-coated plates at a density of 1-2×10^3 cells/cm^2 in differentiation medium [┌−minimal essential medium (Invitrogen) supplemented with 10% fetal bovine serum (FBS)] without leukemia inhibitory factor (LIF). At day 4.5, the Flk1+ MPCs were purified by AutoMACS™Pro Separator (Miltenyi Biotec) with biotin-conjugated anti-mouse Flk1 antibody (clone AVAS12a1, eBioscience) and streptavidin MicroBeads (Miltenyi Biotec). The Flk1+MPCs were then subsequently plated onto Matrigel (BD Biosciences)-coated plates at a density of 1˜2×10^4 cells/cm^2, and were cultured in differentiation medium supplemented with VEGF-A165 (50 ng/ml, Peprotech). To purify the ECs from the differentiating Flk1+ cells, the cells were first dissociated and resuspended in HBSS/2% FBS, and were serially incubated with anti-mouse ICAM2 antibody (rat monoclonal, clone 3C4, Biolegend) for 10 min and with anti-rat IgG Microbead (Miltenyi Biotec) for 15 min. […] VEGF-Trap was prepared as previously described. Various signaling inhibitors and activators including SB203580, PD98059, KT5720, Go6976, KT5823, LY294002, rapamycin, Y27632, SB431542, Rho-kinase inhibitor (RKI; H-1152, isoquinolinesulfonamide), and Rho-kinase inhibitor II (RKI-II; pyridyl urea) were purchased from Calbiochem and Sigma-Aldrich.
Cells were harvested with 0.25% trypsin-EDTA (Invitrogen) or dissociation buffer (Invitrogen) and resuspended in HBSS/2% FBS at 1×10^6 cells per 100┌ l. The cells were incubated for 20 min with the following antibodies: biotin-conjugated anti-mouse Flk1 (clone AVAS12a1, eBioscience), allophycocyanin (APC)-conjugated anti-mouse CD140a (clone APA5, eBioscience), phycoerythrin(PE)-conjugated anti-mouse CD31 (clone 390, eBioscience), Alexa Fluor® 647-conjugated anti-mouse CD144 (clone BV13, eBioscience), PE-conjugated anti-mouse D114 (clone HMD4-1, Biolegend), PE-conjugated anti-mouse Tie2 (clone TEK4, eBioscience), PE-conjugated anti-mouse Endoglin (clone MJ7/18, Biolegend), anti-mouse ICAM2 (clone 3C4, Biolegend), APC-conjugated anti-mouse CD140b (clone APBS, eBioscience), PE-conjugated anti-mouse LYVE1 (clone ALY7, eBioscience), anti-mouse VEGFR3 (goat polyclonal, R&D systems), anti-mouse EphB4 (clone VEB4-7E4, Hycult biotech), and PE-conjugated anti-mouse Notch1 (clone HMN1-12, Biolegend). After washing in HBSS/2% FBS twice, the cells were incubated with the following secondary antibodies: PE-conjugated streptavidin (eBioscience), PE-conjugated anti-rat IgG2a (eBioscience), and FITC-conjugated anti-goat IgG (Invitrogen). Dead cells were excluded by 7-aminoactinomycin D (7-AAD, Invitrogen).
Flk1+ MPCs derived from mouse ESCs are capable of differentiating into ECs, hematopoietic cells, mural cells (MCs), and cardiomyocytes. To avoid cell contamination from using feeder cells for differentiation of Flk1+ MPCs, we have established a feeder cell-free 2D Matrigel system (FIG. 1A). Flk1+ MPCs were differentiated from E14tg2a ESC cell line, and when the Flk1+ MPCs were purified at day 4.5 and cultured on Matrigel-coated plates in the differentiation medium, colonies of CD144+ ECs surrounded by ┌ SMA+MCs were formed (FIG. 1B). At day 6.5, population of CD144+/CD31+ ECs grown in differentiation medium was ˜4%, whereas the same EC population was increased up to ˜20% when VEGF-A (50 ng/ml) was supplemented (FIG. 1C). For following experiments, we chose to use 50 ng/ml of VEGF-A (hereafter referred to as VEGF-A) based on its maximal effect on differentiation and expansion of ECs from Flk1+ MPCs.

With `C[C@@H](N)[C@H]1CC[C@H](C(=O)Nc2ccncc2)CC1` [Y27632], in the experiment with ICAM2+ ECs, the “calponin mRNA, reduced expression level” value came out at 25 fold; the “claudin-5 mRNA, expressed more” value came out at 4.6 fold; the “dll4 mRNA, expressed more” value is 2.5 fold; the “ets1 mRNA, expressed more” value was 1.4 fold. Moreover, in the experiment with ICAM2+ ECs, the “ets2 mRNA, expressed more” value was found to be 2.1 fold; the “notch1 mRNA, expressed more” value is 1.5 fold; the “sm22a mRNA, reduced expression level” value is listed as 25 fold; the “sma mRNA, reduced expression level” value amounted to 17 fold. Moreover, in the experiment with ICAM2+ ECs, the “sox17 mRNA, expressed more” value worked out at 1.7 fold; the “sox18 mRNA, expressed more” value amounted to 1.8 fold; the “vegfr3 mRNA, expressed more” value was 1.7 fold. Also, the “total number of CD31+/CD144+ ECs from Flk1+ MPCs” value with Flk1+ MPCs (10 μM Y27632 plus VEGF-A compared to only VEGF-A (Control)) was about 4.2 fold. Besides, the “percentage of EC population compared to control” value with Flk1+ MPCs (48 hrs after removal of the non-adherent cells at 6 hrs) is 1.4 fold. In the experiment with Flk1+ MPCs (R1 ESC cell line), the “differentiation and expansion of ECs compared to control” value amounted to 1.6 fold. Besides, the “increase of CD31+/CD144+ EC population compared to Control” value with Flk1+ MPCs (Y27632 1 μM with VEGF-A 50 ng/ml) stood at 1.8 fold. Further, in the experiment on Flk1+ MPCs (Y27632 10 μM with VEGF-A 50 ng/ml), the “increase of CD31+/CD144+ EC population compared to Control” value was 4.1 fold. The “differentiation and expansion of ECs compared to control” value in the experiment on Flk1+ MPCs (iPSC) was 5.9 fold. Further, the “percentage of EC population and total cell number, dose-dependent” value with Flk1+ MPCs (various concentrations of Y27632 with VEGF-A) is “increased”.
